Reference: patent US11524943B1 (Vivace Therapeutics, Inc., priority 2017, dated 2022)

System: HEK293T cells stably transfected with 8×TBD luciferase reporter and pRLTK
Test: YAP Reporter Assay (8×TBD firefly luciferase reporter)
Assay type: cell-based
Details: Homo sapiens, HEK-293T; HEK293T 8×TBD reporter cells, 24-hr incubation, top concentration 3 μM, 1:3 dilution, 10 points
Procedure: HEK293T cells stably transfected with 8×TBD luciferase reporter and pRLTK in 384-well plates were treated with the test compounds, starting from 3 μM (final concentration in assay plate), 1:3 dilution, and 10 points in quadruplicates. Post 24-hr incubation with compounds at 37° C. and 5% CO2, cells were lysed and 8×TBD-driven firefly luciferase and control TK-driven renilla luciferase activities were measured using Promega Dual-Luciferase Reporter Assay System.
Reagents: The reagents used for this study are: DMEM: Invitrogen #11960077, Dual-Glo Luciferase Assay System: Promega-E2980, Puromycin Dihydrochloride: Invitrogen-A1113803, 384-well plate: PerkinElmer-6007480, L-GLUTAMINE: Invitrogen-25030164, Hygromycin B: Invitrogen-10687010, and Penicillin-Streptomycin: Merk-TMS-AB2-C
Media: The media used for this assay were: Culture Medium: DMEM+1 ug/mL puromycin+200 ug/mL hygromycin (with 10% FBS+1 mM L-glutamine); and Assay Medium: DMEM (with 10% FBS+1 mM L-glutamine+1×P/S).
Cell Plating: The appropriate media was warmed at 37° C. by water bath: Culture Medium, Assay Medium, 1*D-PBS, 0.05% trypsin-EDTA. The cells were trypsinized after removing all media, then washed with 1* sterile D-PBS and then with 2 ml 0.05% trypsin-EDTA. The cells were then incubated at RT for one minute. Then 10 ml/75 cm2 flask Assay Medium was added to each flask. Using a 10 ml pipette, the cells were then gently resuspended in the media, until the clumps completely disappeared. The cells were then transferred into 50 ml centrifuge tubes and were centrifuged at 800 rpm for 5 mins. The medium was removed and the cells were resuspended with Assay Medium. An aliquot of cells was used to count the cell density (cells/ml). The cell suspension was then diluted with Assay Medium to a concentration of 6×10^4 cells/ml. 50 ul cells suspension was then plated to 384-well plate (PerkinElmer-6007480), 3×10^3 cells/well and the cells were incubated in an incubator at 37° C., 5% CO2.
Compound Treatment: In the afternoon (incubation of the plate with 3-4 hrs), the test compounds were added by Echo, starting from 3 uM (final concentration in the assay plate), 1:3 dilution, 10 points, quadruplicates. The plate was placed at 37° C., 5% CO2 incubator for 24 hrs.
Detection: The Dual-Glo Luciferase Reagent was prepared by transferring the contents of one bottle of Dual-Glo Luciferase Buffer to one bottle of Dual-Glo Luciferase Substrate to create the Dual-Glo Luciferase Reagent. Mixing was performed by inversion until the substrate was thoroughly dissolved. After mixing, the reagent was aliquoted into 15 ml tubes. In the afternoon (24 hrs post compound treatment), the DMEM+ medium in the 384 well plates were aspirated by Microplate Washer.
Measuring firefly luciferase activity: 20 ul Dual-Glo Luciferase Reagent was added to the 384-well plates. The plates were protected from light to prevent interference with the assay. The plates were shaken for 1 min followed centrifuging plates at 1000 rpm for 30 seconds. After waiting at least 10 minutes, the firefly luminescence was measured by Envision.
Measuring renilla luciferase activity: 20 ul Stop-Glo Reagent was added to the 384-well plates. The plates were shaken for 1 min and then centrifuged at 1000 rpm for 30 seconds. After waiting at least 10 minutes, the renilla luminescence was measured by Envision.
Compound IC50 and maximum inhibition on the firefly luciferase and renilla luciferase activities were reported separately.

Row | SMILES | IC50 [nM]
1 | CC(C)NC(=O)c1ccc(Nc2cccc(C(F)(F)F)c2)c(-c2nnn(C)n2)c1 [Compound 21, N-isopropyl-3-(2-methyl-2H-tetrazol-5-yl)-4-((3-(trifluoromethyl)phenyl)amino) benzamide] | ≤ 100
2 | CCNC(=O)c1ccc(Nc2cccc(C(F)(F)F)c2)c(-c2nnn(C)n2)c1 [Compound 22, N-ethyl-3-(2-methyl-2H-tetrazol-5-yl)-4-((3-(trifluoromethyl)phenyl)amino) benzamide] | ≤ 100
3 | Cn1nnc(-c2cc(C(=O)NS(C)(=O)=O)ccc2Nc2cccc(C(F)(F)F)c2)n1 [Compound 23, 3-(2-methyl-2H-tetrazol-5-yl)-N-(methylsulfonyl)-4-((3-(trifluoromethyl)phenyl)amino) benzamide] | ≤ 100
4 | COC(=O)c1ccc(Nc2ccc(C(F)(F)F)cc2)c(-c2nnn(Cc3ccccc3F)n2)c1 [Compound 24, methyl 3-(2-(2-fluorobenzyl)-2H-tetrazol-5-yl)-4-((4-(trifluoromethyl)phenyl)amino) benzoate] | 100 to 1000
5 | O=C(O)c1ccc(Nc2ccc(C(F)(F)F)cc2)c(-c2nnn(Cc3ccccc3F)n2)c1 [Compound 25, 3-(2-(2-fluorobenzyl)-2H-tetrazol-5-yl)-4-((4-(trifluoromethyl)phenyl)amino) benzoic acid] | ≤ 100
6 | COC(=O)c1ccc(Nc2cccc(C(F)(F)F)c2)c(-c2nnn(Cc3ccccc3F)n2)c1 [Compound 26, methyl 3-(2-(2-fluorobenzyl)-2H-tetrazol-5-yl)-4-((3-(trifluoromethyl)phenyl)amino) benzoate] | 100 to 1000
7 | O=C(O)c1ccc(Nc2cccc(C(F)(F)F)c2)c(-c2nnn(Cc3ccccc3F)n2)c1 [Compound 27, 3-(2-(2-fluorobenzyl)-2H-tetrazol-5-yl)-4-((3-(trifluoromethyl)phenyl)amino) benzoic acid] | ≤ 100
8 | Cn1cnc(-c2cc(C(=O)O)ccc2Nc2ccc(C(F)(F)F)cc2)c1 [Compound 28, 3-(1-methyl-1H-imidazol-4-yl)-4-((4-(trifluoromethyl)phenyl)amino) benzoic acid] | ≤ 100
9 | CC(C)NC(=O)c1ccc(Nc2ccc(C(F)(F)F)cc2)c(-c2ccnc(N)c2)c1 [Compound 29, 3-(2-aminopyridin-4-yl)-N-isopropyl-4-((4-(trifluoromethyl)phenyl)amino) benzamide] | 100 to 1000
10 | Nc1cc(-c2cc(C(=O)O)ccc2Nc2ccc(C(F)(F)F)cc2)ccn1 [Compound 30, 3-(2-aminopyridin-4-yl)-4-((4-(trifluoromethyl)phenyl)amino) benzoic acid] | ≤ 100
11 | COC(=O)c1ccc(Nc2ccc(C(F)(F)F)cc2)c(-c2cn(C)cn2)c1 [Compound 33, methyl 3-(1-methyl-1H-imidazol-4-yl)-4-((4-(trifluoromethyl)phenyl)amino)benzoate] | ≤ 100
12 | COC(=O)c1ccc(Nc2ccc(C(F)(F)F)cc2)c(-c2ccnc(N)c2)c1 [Compound 34, methyl 3-(2-amino-4-pyridyl)-4-[4-(trifluoromethyl)anilino] benzoate] | ≤ 100
13 | CC(C)NC(=O)c1ccc(Nc2ccc(C(F)(F)F)cc2)c(-c2cn(C)cn2)c1 [Compound 36, N-Isopropyl-3-(-methylimidazol-4-yl)-4-[4-(trifluoromethyl)anilino] benzamide] | ≤ 100
14 | Cn1cnc(-c2cc(C(=O)NC3CC3)ccc2Nc2ccc(C(F)(F)F)cc2)c1 [Compound 37, N-cyclopropyl-3-(1-methylimidazol-4-yl)-4-[4 (trifluoromethyl)anilino] benzamide] | ≤ 100
15 | Cn1cnc(-c2cc(C(=O)NS(N)(=O)=O)ccc2Nc2ccc(C(F)(F)F)cc2)c1 [Compound 38, 3-(1-methylimidazol-4-yl)-N-sulfamoyl-4-[4-(trifluoromethyl)anilino] benzamide] | ≤ 100
16 | O=C(O)c1ccc(Nc2ccc(C(F)(F)F)cc2)c(-c2ccccn2)c1 [Compound 39, 3-(pyridin-2-yl)-4-((4-(trifluoromethyl)phenyl)amino) benzoic acid] | ≤ 100
17 | O=C(O)c1ccc(Nc2ccc(C(F)(F)F)cc2)c(-c2ncccn2)c1 [Compound 40, 3-(pyrimidin-2-yl)-4-((4-(trifluoromethyl)phenyl)amino) benzoic acid] | ≤ 100
18 | O=C(O)c1ccc(Nc2ccc(C(F)(F)F)cc2)c(-c2cscn2)c1 [Compound 41, 3-(thiazol-4-yl)-4-((4-(trifluoromethyl)phenyl)amino) benzoic acid] | ≤ 100
19 | O=C(O)c1ccc(Nc2ccc(C(F)(F)F)cc2)c(-c2nccs2)c1 [Compound 42, 3-(thiazol-2-yl)-4-((4-(trifluoromethyl)phenyl)amino) benzoic acid] | ≤ 100
20 | O=C(O)c1ccc(Nc2ccc(C(F)(F)F)cc2)c(-c2cnccn2)c1 [Compound 43, 3-(pyrazin-2-yl)-4-((4-(trifluoromethyl)phenyl)amino) benzoic acid] | ≤ 100
21 | Cn1nnc(-c2cc(C(=O)NCCOCCOCCN)ccc2Nc2ccc(C(F)(F)F)cc2)n1 [Compound 44, N-(2-(2-(2-aminoethoxy)ethoxy)ethyl)-3-(2-methyl-2H-tetrazol-5-yl)-4-((4-(trifluoromethyl)phenyl)amino) benzamide] | 100 to 1000
22 | CC(=O)NCCOCCOCCNC(=O)c1ccc(Nc2ccc(C(F)(F)F)cc2)c(-c2nnn(C)n2)c1 [Compound 45, N-(2-(2-(2-acetamidoethoxy)ethoxy)ethyl)-3-(2-methyl-2H-tetrazol-5-yl)-4-((4-(trifluoromethyl)phenyl)amino) benzamide] | ≤ 100
23 | O=C(O)c1ccc(Nc2ccc(C(F)(F)F)cc2)c(-c2cccnn2)c1 [Compound 46, 3-pyridazin-3-yl-4-[4-(trifluoromethyl)anilino] benzoic acid] | ≤ 100
24 | Cn1nnc(-c2cc(C(=O)NCCOCCOCCNC(=O)OC(C)(C)C)ccc2Nc2ccc(C(F)(F)F)cc2)n1 [Compound 47, tert-butyl (2-(2-(2-(3-(2-methyl-2H-tetrazol-5-yl)-4-((4-(trifluoromethyl)phenyl)amino)benzamido)ethoxy)ethoxy)ethyl)carbamate] | 100 to 1000
25 | O=C(O)c1ccc(Nc2ccc(C(F)(F)F)cc2)c(-c2cc(F)ccn2)c1 [Compound 49, 3-(4-fluoro-2-pyridyl)-4-[4-(trifluoromethyl)anilino] benzoic acid] | ≤ 100
26 | COc1ccnc(-c2cc(C(=O)O)ccc2Nc2ccc(C(F)(F)F)cc2)c1 [Compound 50] | ≤ 100
27 | O=C(O)c1ccc(Nc2ccc(C(F)(F)F)cc2)c(-c2ccc(F)cn2)c1 [Compound 51, 3-(5-fluoro-2-pyridyl)-4-[4-(trifluoromethyl)anilino] benzoic acid] | ≤ 100
28 | O=C(O)c1ccc(Nc2ccc(C(F)(F)F)cc2)c(-c2ccc(Cl)cn2)c1 [Compound 52, 3-(5-chloro-2-pyridyl)-4-[4 (trifluoromethyl)anilino] benzoic acid] | ≤ 100
29 | COC(=O)c1ccc(Nc2ccc(C(F)(F)F)cc2)c(-c2nnc(C3CC3)o2)c1 [Compound 53, methyl 3-(5-cyclopropyl-1,3,4-oxadiazol-2-yl)-4-((4-(trifluoromethyl)phenyl)amino)benzoate] | ≤ 100
30 | O=C(O)c1ccc(Nc2ccc(C(F)(F)F)cc2)c(-c2nnc(C3CC3)o2)c1 [Compound 54, 3-(5-cyclopropyl-1,3,4-oxadiazol-2-yl)-4-((4-(trifluoromethyl)phenyl)amino) benzoic acid] | ≤ 100
